We go through 1 substance from patent publication US20230193262A1, “Nucleic acid molecules capable of modulating target gene expression and uses thereof” (KOREA ADVANCED INSTITUTE OF SCIENCE AND TECHNOLOGY, priority 2021, published 2023).

For series [1], the system named is MCF-7 breast cancer cells. In words: Cell viability / apoptosis in MCF-7. Format: cell-based. The following applies: single siRNA, final concentration 60 nM. Here is the method: The miRNA triggers were assayed for cytotoxicity and apoptosis induction, using the CCK-8 (Cell Counting Kit-8) (Dojindo, Kumamoto, Japan) according to the manufacturer's instruction. Cells were incubated in 96-well plates (5×10^3 cells/well) at 37° C. for 24 hours under a 5% CO2 atmosphere, followed by transfection. Three days after transfection, the medium was removed. A 10-fold dilution of CCK-8 solution in DMEM was added to the cells which were then incubated at 37° C. for 2 hours. After incubation, absorbance was read at 450 nm on Tecan Infinite M200 pro microplate reader (Mnnedorf, Switzerland).
An siRNA targeting bcl-2, bcl-xL, or mcl-1 was transfected into MCF-7 breast cancer cells and PANC-1 pancreatic cancer cells. By using qRT-PCR, establishment was made of a condition under which the expression of each target gene is decreased by 80% or more (transfection was performed at a concentration of 60 nM with the aid of Lipofectamine). As a negative control, a Luc (Luciferase)-targeting siRNA (siLuc) was used. Under the same condition of decreasing the expression of each target gene by 80% or more, the cells transfected with the siRNAs were measured for apoptosis, and the results are depicted in FIGS. 14a and 14b.
Linear miRNA triggers that could bind to miR-141 or let7f and target bcl-xL or mcl-1 were prepared and transfected alone or in combination into the breast cancer cell line MCF-7 which was then measured for cell viability. Every nucleotide of the triggers and controls was chemically modified with 2′-OMe.
First, MCF-7 was measured for cell viability after treatment with siMCL-1, siBCL-xL, and siBCL-2 (FIG. 48). […] The final concentration of the siRNAs was 60 nM.
Next, examination was made of the apoptosis when two or more genes were regulated together. MCF-7 was measured for cell viability after treatment with siMCL-1+siBCL-xL, siMCL-1+siBCL-2, siBCL-xL+siBCL-2, and siMCL-1+siBCL-xL+siBCL-2 (FIG. 49).
Finally, experiments under all the conditions (individual and simultaneous regulation) were conducted simultaneously so as to compare effects thereof. […]

A further series has as its system cleaved PARP. In words: Western blot of apoptotic marker cleaved PARP. Format: cell-based. The note with it: blood cancer cell line HL-60. Here is the method: miRNA triggers were transfected into cells in the same manner as in Reference Example 4. After 72 hours, the cells were collected using a cell scraper and lysed with a RIPA buffer (NaCl 150 mM, EDTA 5 mM, Tris 50 mM, NP-40 1.0%, sodium deoxycholate 0.5%, SDS 0.1%). The cell lysate was sonicated 15 times, each for 20 sec, with a halt for 30 sec every sonication. Following centrifugation at 5,000 g for 5 min, the supernatant was taken and used to extract proteins therefrom. A total of 30-40 μg of protein sample was separated in 10-15% SDS-PAGE gel and transferred onto a PVDF membrane through a semi-dry blotting system. The membrane was blocked for 1 hour in 5% skimmed milk and incubated for 2 hours with a 1,000-fold dilution of a primary antibody in, 1% skimmed milk. […] The membrane incubated with the secondary antibody was washed three times with 1×PBST for 10 min each wash, and then reacted with Clarity Western ECL Substrate (#1705061, Bio-Rad), after which images were obtained and analyzed using ChemiDoc (Bio-rad, Hercules, USA). […]
The cells transfected with the selected miRNA triggers were measured for protein expression levels of the target Bcl-xL and the apoptotic marker cleaved PARP through western blotting, and the results are depicted in FIG. 32b.
(In general: In western blotting, separated proteins are transferred to a membrane and probed.)

As for “siBcl-2: siRNA targeting bcl-2; SEQ ID NO 62 (AUCAAUCUUCAGCACUCUC; listed as RNA, chemistry not given here)”, in series [1], the “apoptosis (cell viability)” value is given as “apoptosis was detected”. Moreover, the “expression of the apoptotic marker cleaved PARP” value in the series on cleaved PARP is “upregulated”.
